Test results as given in patent EP2114888B1, “TRICYCLIC COMPOUNDS AND THEIR USE AS GLUCOCORTICOID RECEPTOR MODULATORS” (priority 2007, dated 2008).
Where a name gives a salt, the structure may show the parent alone.

How the values were obtained:
IL-6 = assay: IL-1β-stimulated IL-6 production in A549 lung epithelial cells; format: cell-based, Human; conditions: A549 cells; Prednisolone (1 µM) = 100% inhibition control
Protocol: Human A549 lung epithelial cells (American Type Culture Collection, Rockville, MD) were cultured in Kaighn's F-12K medium with penicillin-streptomycin (10 U/mL) and 10% heat-inactivated fetal bovine serum (all from Invitrogen, Grand Island, NY). A549 cells were plated at a density of 30,000 cells/well in 96-well plates and incubated overnight at 37°C and with 5% CO2. The cells were serum-starved by replacing the growth medium with serum-free Kaighn's F-12K medium with penicillin-streptomycin (10 U/mL) and, again, incubating overnight at 37°C and with 5% CO2. On the third day, the medium was replaced with fresh serum-free medium and the cells were incubated with or without compound (vehicle was DMSO at 0.1 % maximum concentration) for approximately 1 hour and then stimulated with 1 ng/mL recombinant human IL-1β (R&D Systems, Minneapolis, MN) for 20 hours at 37°C and with 5% CO2. Cell supernatants were collected for determination of IL-6 levels using MSD (Meso Scale Discovery, Gaithersburg, MD) 96-well Single Spot plates as per the manufacturer's instructions. Plates were read with an MSD Sector Imager 6000. […] Percent inhibition for each compound concentration, relative to these controls, was calculated using Excel (Microsoft, Redmond, WA). IC50 values were generated using GraFit 5.0 data analysis software (Erithacus Software Ltd., Surrey, UK).

TNFα [1] = assay: LPS-stimulated TNFα production in differentiated U937 cells; format: cell-based, Human; conditions: for TNFα % Inhibition: U937 cells
Protocol: Human U937 pre-monocytic cells (American Type Culture Collection, Rockville, MD) were cultured in RPMI 1640 with glutamine (2 mM), penicillin-streptomycin (10 U/mL) and 10% heat-inactivated fetal bovine serum (all from Invitrogen, Grand Island, NY). Cells were differentiated to a monocyte/macrophage phenotype with phorbol 12-myristate 13-acetate (Sigma-Aldrich, St. Louis, MO), 20 ng/mL, overnight. The cells were then centrifuged, the medium aspirated, the cells resuspended in an equal volume of fresh RPMI 1640 medium with glutamine and penicillin-streptomycin and fetal bovine serum as listed above, and incubated for 48 hours at 37°C and with 5% CO2. Following recovery, the cells were scraped, counted, and plated in accordance to the experimental design prior to stimulation with LPS, as described below.
U937 cells were differentiated and plated at a density of 200,000 cells/well in 96-well plates. Cells were incubated with or without compound (vehicle was DMSO at 1% maximum concentration) for approximately one hour and then stimulated with 100 ng/mL lipopolysaccharide (LPS), E. coli serotype 0111:B4 (Sigma-Aldrich, St. Louis, MO) for four hours at 37°C and with 5% CO2. Cell supernatants were collected for determination of TNFα levels using an in-house sandwich-type ELISA. Mouse anti-human TNFα monoclonal antibody (clone 28401.111) and biotinylated goat anti-human TNFα (R&D Systems, Minneapolis, MN) were used as the capture and detection antibodies, respectively. Streptavidin-horseradish peroxidase (HRP) (R&D Systems, Minneapolis, MN) and K-Blue Substrate/Red Stop (Neogen, Lexington, KY) were used as the detection system. Absorbance was measured at 650 nm. TNFα concentrations were interpolated from a human TNFα recombinant protein (R&D Systems, Minneapolis, MN) standard curve using a four parameter logistics model by Magellan 4.11 data analysis software (Tecan, Durham, NC). […] Vehicle was used to define the 0% inhibition control. Percent inhibition for each concentration of compound, relative to these controls, was calculated using Excel (Microsoft, Redmond, WA). IC50 values were generated using LabStats Fit Curve V4.R7.MO data analysis software (Pfizer Sandwich Laboratories, UK and Tessella Support Services plc, Abingdon UK).

TNFα [2] = assay: LPS-induced serum TNFα suppression, 28-day repeat dose mouse model; format: in vivo, Swiss Webster female mice; conditions: for TNFα Suppression (ED80 dose): oral gavage, 28 days, LPS-induced serum TNFα
Protocol: (§1) The compounds were weighed and suspended in a vehicle of 0.5% methylcellulose/0.025% tween 20 (Sigma-Aldrich, St. Louis, MO). Compound suspensions were homogenized using a Polytron PT-3100 tissue homogenizer to create a very fine suspension and were then sonicated for 10 minutes using a water bath sonicator. Aliquots of each suspension were made for daily dosing at 0.2 ml/dose. Swiss Webster female mice, 10-12 weeks old, 28-29 grams, (Taconic, Germantown, NY) were used in accordance with the guidelines of the Institutional Animal Care and Use Committee and in accordance with NIH guidelines on laboratory animal welfare. Mice were acclimated in the Pfizer animal facility for three to seven days prior to being utilized in a study. […] Each treatment group contained 5-10 mice. To establish a dosing regimen for the studies, a pilot pharmacodynamic time course experiment was conducted to quantify TNFα repression after a single ED80 dose.
(§2) Body weights were measured on the first and last day of each experiment. Blood samples were obtained after three weeks of dosing for a steady-state pharmacokinetic (PK) analysis. To assess compound effects on LPS-induced TNFα, all mice received an intraperitoneal injection of LPS (Salmonella typhosa, L-7895; Sigma-Aldrich, St. Louis,) 2.5 hr after the last dose on day 28. Mice were sacrificed 90 minutes after LPS administration. Serum samples were quantified for osteocalcin and TNFα using the multiplex assays (Linco Research, Inc, St. Charles, MO; Luminex 100, Austin, TX). Samples were diluted 1:20 and the assay was run according to manufacturer's instructions. The osteocalcin standard was purchased separately (Biomedical Technologies Inc., Stoughton, MA). Mice were fasted for 4 hours before serum was collected for TNFα, and osteocalcin levels. For each experiment, outliers were detected by calculating the number of standard deviations from the mean of the group. If the value being examined was more than 2.5 standard deviations from the mean, it was excluded from the rest of the calculations.
(§3) The individual mouse percent inhibition values were fit to a four-parameter logistic model using the dose mean for each group.
(§4) ED50 and ED80 values were obtained for the various endpoints using a four-parameter logistic fit. For compounds which were tested multiple times, ED50 and ED80 values were obtained using four-parameter logistic fits of the combined data from multiple experiments.

[3] = test system: Mouse Collagen-induced arthritis (mCIA); assay: Therapeutic mouse collagen-induced arthritis (mCIA) model; format: in vivo, Male DBA/J mice; conditions: for Therapeutic mCIA (ED80 dose): dosing day 34 through day 49
Source text: Mouse Collagen-induced arthritis is a commonly used chronic, preclinical model of rheumatoid arthritis in which joint swelling and bone destruction occur following immunization with type II collagen. Reduction of disease incidence and severity has been shown previously to be predictive of disease-modification and signs and symptoms mitigation, respectively, in a clinical setting. In the therapeutic mCIA model, induction of disease incidence and severity was synchronized via LPS stimulation. Male DBA/J mice were immunized with 100 ug of bovine type II collagen (bCII) on day 0. […] Dosing of compounds was initiated in the therapeutic mode on day 34 and continued through day 49. Different treatments were compared by measuring the decrease in incidence (i.e., resolution of disease) and the decrease in severity of paw swelling over time.

[4] = Serum osteocalcin suppression, 28-day repeat dose mouse model; conditions: in vivo, po
Protocol: as §1, §2, §3, §4

osteocalcin = assay: as above; conditions: in vivo, po
Protocol: as §1, §2, §3, §4

[5] = Prednisolone (1 µM) = 100% inhibition control

Row | Structure (SMILES) | IL-6 % Inhibition (IL-6) [%] | TNFα Suppression (ED80 dose) (TNFα [2]) [mg/kg] | Therapeutic mCIA (ED80 dose) [3] [mg/kg] | also measured
1 | Cc1ncccc1CNC(=O)c1ccc2c(c1)CC[C@@H]1C[C@@](O)(CCC(F)(F)F)CC[C@@]21Cc1ccccc1 [Comparator A, (4βS,7S,8αR)-4β-benzyl-7-hydroxy-N-((2-methylpyridin-3-yl)methyl)-7-(3,3,3-trifluoropropyl)-4β,5,6,7,8,8α,9,10-octahydrophenanthrene-2-carboxamide, reference compound] | 59.9 |  |  | TNFα % Inhibition (TNFα [1]; [5]): 35%
2 | Cc1cnc(NC(=O)c2ccc3c(c2)CC[C@@H]2C[C@@](O)(C(F)(F)F)CC[C@@]32Cc2ccccc2)c(C)n1 [Comparator B, (4βS,7R,8αR)-4β-benzyl-N-(3,5-dimethylpyrazin-2-yl)-7-hydroxy-7-(trifluoromethyl)-4α,5,6,7,8,8α,9,10-octahydrophenanthrene-2-carboxamide] | 75.8 | 2.91 | >10 | 
3 | Cc1ncccc1NC(=O)c1ccc2c(c1)CC[C@@H]1C[C@@](O)(CCC(F)(F)F)CC[C@@]21Cc1ccccc1 [Comparator C, (4βS,7S,8αR)-4β-benzyl-7-hydroxy-N-(2-methylpyridin-3-yl)-7-(3,3,3-trifluoropropyl)-4β,5,6,7,8,8α,9,10-octahydrophenanthrene-2-carboxamide] | 82.6 | 1.33 | >10 | 
4 | Cc1ccncc1NC(=O)c1ccc2c(c1)CC[C@@H]1C[C@@](O)(C(F)(F)F)CC[C@@]21Cc1ccccc1 [Comparator D, (4βS,7R,8αR)-4β-benzyl-7-hydroxy-N-(4-methylpyridin-3-yl)-7-(trifluoromethyl)-4,5,6,7,8,8α,9,10-octahydrophenanthrene-2-carboxamide] | 79.8 | >20 |  | 
5 | Cc1ncccc1NC(=O)c1ccc2c(c1)C(=O)C[C@@H]1C[C@@](O)(C(F)(F)F)CC[C@@]21Cc1ccccc1 [Comparator E, (4βS,7R,8αS)-4β-benzyl-7-hydroxy-N-(2-methylpyridin-3-yl)-10-oxo-7-(trifluoromethyl)-4α,5,6,7,8,8α,9,10-octahydrophenanthrene-2-carboxamide] | 79.7 | 1.18 | 2.6 | 
6 | Cc1ncccc1NC(=O)c1ccc2c(c1)[C@H](O)C[C@@H]1C[C@@](O)(C(F)(F)F)CC[C@@]21Cc1ccccc1 [Comparator F, (4βS,7R,8αR,10R)-4β-benzyl-7,10-dihydroxy-N-(2-methylpyridin-3-yl)-7-(trifluoromethyl)-4β,5,6,7,8,8α,9,10-octahydrophenanthrene-2-carboxamide] | 83.3 | 5.67 | >10 | 
7 | Cc1ncccc1NC(=O)c1ccc2c(c1)CC[C@@H]1C[C@@](O)(C(F)F)CC[C@@]21Cc1ccccc1 [Comparator H, (4βS,7R,8αR)-4β-benzyl-7-(difluoromethyl)-7-hydroxy-N-(2-methylpyridin-3-yl)-4α,5,6,7,8,8α,9,10-octahydrophenanthrene-2-carboxamide] | 64.9 | 0.72 |  | 
8 | Cc1ncccc1NC(=O)c1ccc2c(c1)C=C[C@@H]1C[C@@](O)(C(F)(F)F)CC[C@@]21Cc1ccccc1 [Comparator I, (4βS,7R,8αS)-4β-benzyl-7-hydroxy-N-(2-methylpyridin-3-yl)-7-(trifluoromethyl)-4β,5,6,7,8,8α-hexahydrophenanthrene-2-carboxamide] | 67.5 | 5.45 | >20 | 
9 | Cc1ncc(NC(=O)c2ccc3c(c2)CC[C@@H]2C[C@@](O)(CCC(F)(F)F)CC[C@@]32Cc2ccccc2)c(C)n1 [Comparator J, (4βS,7S,8αR)-4β-benzyl-N-(2,4-dimethylpyrimidin-5-yl)-7-hydroxy-7-(3,3,3-trifluoropropyl)-4β,5,6,7,8,8α,9,10-octahydrophenanthrene-2-carboxamide] | 55 | 0.79 | >20 | 
10 | Cc1ncccc1NC(=O)c1ccc2c(c1)CC[C@@H]1C[C@@](O)(C(F)(F)F)CC[C@@]21Cc1ccccc1 [Example 1 HCL salt, (4βS,7R,8αR)-4β-benzyl-7-hydroxy-N-(2-methylpyridin-3-yl)-7-(trifluoromethyl)-4β,5,6,7,8,8α,9,10-octahydrophenanthrene-2-carboxamide] | 76.9 |  |  | TNFα % Inhibition (TNFα [1]; [5]): 77.1%; TNFα % Inhibition (TNFα [1]; additional result (footnote a)): 62%
11 | C[C@]12C=CC(=O)C=C1CC[C@@H]1[C@@H]2[C@@H](O)C[C@@]2(C)[C@H]1CC[C@]2(O)C(=O)CO [Prednisolone, reference compound] |  |  |  | ED50 [4]: 1 mg/kg; Osteocalcin Suppression (ED80 dose) (osteocalcin): 6.80 mg/kg; ED80 (TNFα [2]; Mus musculus, po, 672 h, read-out: TNFα Suppression (ED80 dose)): 2.1 mg/kg; ED80 ([3]; Mus musculus, read-out: Therapeutic mCIA (ED80 dose)): 5.5 mg/kg; inhibition at 1 µM (TNFα [1]; Homo sapiens, U-937, read-out: TNFα % Inhibition): 100%
